Like-named read-outs stand apart in the source and are kept apart here.
Assays:
Assay in all cases: microbe, parasite or virus in culture
[1] = tested on: influenza A virus (HA of H5N1, Goose/Qinghai/59/05); format: cell-based; conditions: for inhibition at 12.5 µM: H5N1, A549, 12.5 μM, read-out: H5N1 pseudotype assay % inhibition at 12.5 μM
[2] = tested on: PR8-PB2-Gluc, influenza A/Puerto Rico/8/1934 (PR8) H1N1 virus; format: cell-based; conditions: read-out: EC50 (nM), antiviral activity in the infectious IAV
PR8-NS1-Gluc virus = format: cell-based, influenza A PR8
[3] = Influenza A virus, H5N1, A549, read-out: H5N1 pseudotype assay EC50 (μM)
[4] = read-out: H5N1 pseudotype assay EC50
[5] = Influenza A virus, PR8, MDCK, 48 h

CC(C)N1CCC(NC(=O)c2c(Cl)cccc2Cl)CC1 [Compound 1, 2,6-Dichloro-N-(1-isopropylpiperidin-4-yl)benzamide]
inhibition at 12.5 µM ([1]; Influenza A virus): 90%
EC50 [1, 3]: 3.04 ± 1.13 µM
EC50 ([2]; Influenza A virus, MDCK): 272 ± 37 nM

CC(C)N1CCC(NC(=O)c2c(Cl)cccc2C(F)(F)F)CC1 [Compound 2, 2-Chloro-N-(1-isopropylpiperidin-4-yl)-6-(trifluoromethyl)benzamide]
inhibition at 12.5 µM ([1]; Influenza A virus): 85%
EC50 [1, 3]: 5.62 ± 2.16 µM
EC50 ([2]; Influenza A virus, MDCK): 587 ± 140 nM

CC(C)N1CCC(NC(=O)c2ccccc2C(F)(F)F)CC1 [Compound 3, N-(1-Isopropylpiperidin-4-yl)-2-(trifluoromethyl)benzamide]
inhibition at 12.5 µM ([1]; Influenza A virus): 31%

CC(C)N1CCC(NC(=O)c2ccc([N+](=O)[O-])cc2Cl)CC1 [Compound 4, 2-Chloro-N-(1-isopropylpiperidin-4-yl)-4-nitrobenzamide]
inhibition at 12.5 µM ([1]; Influenza A virus): 97%
EC50 [1, 3]: 0.72 ± 0.09 µM
EC50 ([2]; Influenza A virus, MDCK): 211 ± 43 nM

CC(C)N1CCC(NC(=O)c2ccc(C(F)(F)F)cc2Cl)CC1 [Compound 5, 2-Chloro-N-(1-isopropylpiperidin-4-yl)-4-(trifluoromethyl)benzamide]
inhibition at 12.5 µM ([1]; Influenza A virus): 99%
EC50 [1, 3]: 0.36 ± 0.05 µM
EC50 ([2]; Influenza A virus, MDCK): 380 ± 182 nM

CC(C)N1CCC(NC(=O)c2ncc(Cl)cc2Cl)CC1 [Compound 6, 3,5-Dichloro-N-(1-isopropylpiperidin-4-yl)picolinamide]
inhibition at 12.5 µM ([1]; Influenza A virus): 39%

CC(C)N1CCC(NC(=O)c2ncc(C(F)(F)F)cc2Cl)CC1 [Compound 7, 3-Chloro-N-(1-isopropylpiperidin-4-yl)-5-(trifluoromethyl)picolinamide]
inhibition at 12.5 µM ([1]; Influenza A virus): 76%

CC(C)N1CCC(NC(=O)c2ncccc2Cl)CC1 [Compound 8, 3-Chloro-N-(1-isopropylpiperidin-4-yl)picolinamide]
inhibition at 12.5 µM ([1]; Influenza A virus): 40%

CC(C)N1CCC(N(C)C(=O)c2c(Cl)cccc2Cl)CC1 [Compound 9, 2,6-Dichloro-N-(1-isopropylpiperidin-4-yl)-N-methylbenzamide]
inhibition at 12.5 µM ([1]; Influenza A virus): 91%
EC50 [1, 3]: 4.45 µM
EC50 ([2]; Influenza A virus, MDCK): 724 ± 36 nM

CC(C)N1CCC(N(Cc2ccccc2)C(=O)c2c(Cl)cccc2Cl)CC1 [Compound 10, N-Benzyl-2,6-dichloro-N-(1-isopropylpiperidin-4-yl)benzamide]
H5N1 pseudotype assay % inhibition at 12.5 μM ([1]; 12.5 μM): 64%
inhibition at 12.5 µM ([1]; Influenza A virus): 67%

O=C(NC1CCN(C2CC2)CC1)c1c(Cl)cccc1Cl [Compound 11, 2,6-Dichloro-N-(1-cyclopropylpiperidin-4-yl)benzamide]
inhibition at 12.5 µM ([1]; Influenza A virus): 33%

O=C(NC1CCN(C2CCC2)CC1)c1c(Cl)cccc1Cl [Compound 12, 2,6-Dichloro-N-(1-cyclobutylpiperidin-4-yl)benzamide]
inhibition at 12.5 µM ([1]; Influenza A virus): 76%

CC(C)(C)N1CCC(NC(=O)c2c(Cl)cccc2Cl)CC1 [Compound 13, N-(1-(tert-Butyl)piperidin-4-yl)-2,6-dichlorobenzamide]
inhibition at 12.5 µM ([1]; Influenza A virus): 99%
EC50 [1, 3]: 0.51 ± 0.04 µM
EC50 ([2]; Influenza A virus, MDCK): 113 ± 18 nM

CC(C)CN1CCC(NC(=O)c2c(Cl)cccc2Cl)CC1 [Compound 14, 2,6-Dichloro-N-(1-isobutylpiperidin-4-yl)benzamide]
inhibition at 12.5 µM ([1]; Influenza A virus): 89%
EC50 [1, 3]: 2.15 ± 0.64 µM
EC50 ([2]; Influenza A virus, MDCK): 852 ± 79 nM

O=C(NC1CCN(C2COC2)CC1)c1c(Cl)cccc1Cl [Compound 15, 2,6-Dichloro-N-(1-(oxetan-3-yl)piperidin-4-yl)benzamide]
inhibition at 12.5 µM ([1]; Influenza A virus): 7%

CC(C)CN1CCC(NC(=O)c2ccc(C(F)(F)F)cc2Cl)CC1 [Compound 17, 2-Chloro-N-(1-isobutylpiperidin-4-yl)-4-(trifluoromethyl)benzamide]
inhibition at 12.5 µM ([1]; Influenza A virus): 73%

O=C(NC1CCN(C2CCCCC2)CC1)c1ccc(C(F)(F)F)cc1Cl [Compound 18, 2-Chloro-N-(1-cyclohexylpiperidin-4-yl)-4-(trifluoromethyl)benzamide]
inhibition at 12.5 µM ([1]; Influenza A virus): 98%
EC50 [1, 3]: 0.91 ± 0.25 µM
EC50 ([2]; Influenza A virus, MDCK): 505 ± 174 nM

CC(C)N1CCC(NS(=O)(=O)c2ccc(Cl)cc2Cl)CC1 [Compound 19, 2,4-Dichloro-N-(1-isopropylpiperidin-4-yl)benzenesulfonamide]
inhibition at 12.5 µM ([1]; Influenza A virus): 1%

CC(C)N1CCCC(NC(=O)c2c(Cl)cccc2Cl)C1 (centres unmarked) [Compound 20, 2,6-Dichloro-N-(1-isopropylpiperidin-3-yl)benzamide]
inhibition at 12.5 µM ([1]; Influenza A virus): 14%

CC(C)N1CCC(CNC(=O)c2c(Cl)cccc2Cl)CC1 [Compound 21, 2,6-Dichloro-N-((1-isopropylpiperidin-4-yl)methyl)benzamide]
inhibition at 12.5 µM ([1]; Influenza A virus): 23%

CC(C)N1CCC(NC(=O)c2c(Cl)cccc2Cl)C1 (centres unmarked) [Compound 22, 2,6-Dichloro-N-(1-isopropylpyrrolidin-3-yl)benzamide]
inhibition at 12.5 µM ([1]; Influenza A virus): 11%

CC(C)N1CCCC(NC(=O)c2c(Cl)cccc2Cl)CC1 (centres unmarked) [Compound 23, 2,6-Dichloro-N-(1-isopropylazepan-4-yl)benzamide]
inhibition at 12.5 µM ([1]; Influenza A virus): 71%

CC(C)N1CC2C(C1)C2NC(=O)c1c(Cl)cccc1Cl (centres unmarked) [Compound 24, 2,6-Dichloro-N-(3-isopropyl-3-azabicyclo[3. 1.0]hexan-6-yl)benzamide]
inhibition at 12.5 µM ([1]; Influenza A virus): 61%

CC(C)N1CCN(C(=O)c2c(Cl)cccc2Cl)CC1 [Compound 25, (2,6-Dichlorophenyl)-(4-isopropylpiperazin-l-yl)methanone]
H5N1 pseudotype assay % inhibition at 12.5 μM [1]: 4%

CC(C)N1CCC2(CC1)OCCN2C(=O)c1c(Cl)cccc1Cl [Compound 26, (2,6-Dichlorophenyl)-(8-isopropyl-1-oxa-4,8-diazaspiro[4.5]decan-4-yl)methanone]
inhibition at 12.5 µM ([1]; Influenza A virus): 19%

CC(C)N1CCC(C)(NC(=O)c2c(Cl)cccc2Cl)CC1 [Compound 27, 2,6-Dichloro-N-(1-isopropyl-4-methylpiperidin-4-yl)benzamide]
inhibition at 12.5 µM ([1]; Influenza A virus): 75%

CO[C@H]1CN(C(C)C)CC[C@H]1NC(=O)c1c(Cl)cccc1Cl [Compound 28, 2,6-Dichloro-N-((3S,4R)-1-isopropyl-3-methoxypiperidin-4-yl)benzamide]
inhibition at 12.5 µM ([1]; Influenza A virus): 64%

CC(C)N1CC[C@H](NC(=O)c2c(Cl)cccc2Cl)[C@@H](F)C1 [Compound 29, 2,6-Dichloro-N-((3S,45)-3-fluoro-1-isopropylpiperidin-4-yl)benzamide]
H5N1 pseudotype assay % inhibition at 12.5 μM ([1]; 12.5 μM): 87%
EC50 [1, 4]: 1.81 ± 0.45 µM
EC50 [2]: 885 ± 50 nM

CC(C)N1CCC(NC(=O)c2c(Cl)cccc2Cl)C(F)(F)C1 (centres unmarked) [Compound 30, 2,6-Dichloro-N-(3,3-difluoro-1-isopropylpiperidin-4-yl)benzamide]
inhibition at 12.5 µM ([1]; Influenza A virus): 77%

CC(C)N1CC[C@H](NC(=O)c2ccc(C(F)(F)F)cc2Cl)[C@@H](F)C1 [Compound 31, 2-Chloro-N-((3S,45)-3-fluoro-1-isopropylpiperidin-4-yl)-4-(trifluoromethyl)benzamide]
H5N1 pseudotype assay % inhibition at 12.5 μM ([1]; 12.5 μM): 93%
EC50 [1, 4]: 1.16 ± 0.67 µM
EC50 [2]: 324 ± 105 nM

CC(C)N1CC[C@H](NC(=O)c2ccc(C(F)(F)F)cc2Cl)[C@H](F)C1 [Compound 32, 2-Chloro-N-((3R,45)-3-fluoro-1-isopropylpiperidin-4-yl)-4-(trifluoromethyl)benzamide]
H5N1 pseudotype assay % inhibition at 12.5 μM ([1]; 12.5 μM): 99%
EC50 [1, 4]: 0.63 ± 0.48 µM
EC50 [2]: 263 ± 33 nM

CC(C)N1CC[C@@H](NC(=O)c2ccc(C(F)(F)F)cc2Cl)[C@H](F)C1 [Compound 33, 2-Chloro-N-((3R,4R)-3-fluoro-1-isopropylpiperidin-4-yl)-4-(trifluoromethyl)benzamide]
inhibition at 12.5 µM ([1]; Influenza A virus): 87%
EC50 [1, 3]: 2.93 ± 0.3 µM
EC50 ([2]; Influenza A virus, MDCK): 989 ± 323 nM

CC(C)N1CC[C@@H](NC(=O)c2ccc(C(F)(F)F)cc2Cl)[C@@H](F)C1 [Compound 34, 2-Chloro-N-((3S,4R)-3-fluoro-1-isopropylpiperidin-4-yl)-4-(trifluoromethyl)benzamide]
inhibition at 12.5 µM ([1]; Influenza A virus): 99%
EC50 [1, 3]: 0.67 ± 0.2 µM
EC50 ([2]; Influenza A virus, MDCK): 195 ± 49 nM

CCC(CC)O[C@@H]1C=C(C(=O)O)C[C@H](N)[C@H]1NC(C)=O [Oseltamivir carboxylate, reference compound]
EC50 ([2]; Influenza A virus, MDCK): 181 ± 69 nM
EC30 (PR8-NS1-Gluc virus): 160 nM
EC40 (PR8-NS1-Gluc virus): 229 nM
EC60 (PR8-NS1-Gluc virus): 441 nM
EC70 (PR8-NS1-Gluc virus): 629 nM
EC80 (PR8-NS1-Gluc virus): 972 nM
EC50 (PR8-NS1-Gluc virus; [5]): 318 nM
EC90 (PR8-NS1-Gluc virus; [5]): 1870 nM

— patent US11787769B2 (priority 2019, dated 2023)
